According to ChEMBL document CHEMBL3885861, “Open TG-GATES”:

Species on record: Rattus norvegicus
Test: Open TG-GATES - Regimen: Single
Format: toxicity, organism-based, Sprague-Dawley
Parameters: regimen Single, gender Male, age 6 weeks
Conditions: in vivo, po, 0 mg/kg, route gavage, dose level Control; for APTT / Bas / Eos / Fbg / Hb / Ht / Lym / MCH / MCHC / MCV / Mono / Neu / PT / Plat / RBC / Ret / WBC: tissue Blood; for KIDNEY_L / KIDNEY_R / KIDNEY_TOTAL: tissue Kidney; for LIVER: tissue Liver; for A/G / ALP / ALT / AST / BUN / CRE / Ca / Cl / DBIL / GLC / IP / K / LDH / Na / PL / RALB / TBIL / TC / TG / TP / gamma-GTP: tissue Plasma

`Cc1cccc(Nc2ccccc2C(=O)O)c1C` [MEFENAMIC ACID] showed a TERMINAL_BW (3 h) of 216.3 g, an APTT (3 h) of 18.2 s and a Bas (3 h) of 0%. The Eos (3 h) was 1%, the Fbg (3 h) was 217.8 mg/dL and the Hb (3 h) was 13.2 g/dL. The Ht (3 h) was 37.1%, the Lym (3 h) was 77.8% and the MCH (3 h) was 21.9 pg. The MCHC (3 h) was 35.5%, the MCV (3 h) was 61.9 fL and the Mono (3 h) was 2.4%. The Neu (3 h) was 16.4%, the PT (3 h) was 12.4 s and the Plat (3 h) was 117.6 x10_4/uL. It also gave an RBC (3 h) of 600.2 x10_4/ul, a Ret (3 h) of 7.4% and a WBC (3 h) of 74.9 x10_2/uL. It also gave a KIDNEY_L (3 h) of 1 g, a KIDNEY_R (3 h) of 1 g and a KIDNEY_TOTAL (3 h) of 1.9 g. For the same compound, the LIVER (3 h) was 9.7 g, the A/G (3 h) was 1.7 and the ALP (3 h) was 1061 IU/L. It also gave an ALT (3 h) of 35 IU/L, an AST (3 h) of 67 IU/L and a BUN (3 h) of 10.8 mg/dL. For the same compound, the CRE (3 h) was 0.4 mg/dL, the Ca (3 h) was 10.9 mg/dL and the Cl (3 h) was 103 meq/L. It also gave a DBIL (3 h) of 0.078 mg/dL, a GLC (3 h) of 190.4 mg/dL and an IP (3 h) of 9 mg/dL. The K (3 h) was 4.1 meq/L, the LDH (3 h) was 213 IU/L and the Na (3 h) was 140.8 meq/L. For the same compound, the PL (3 h) was 145.8 mg/dL, the RALB (3 h) was 3.5 g/dL and the TBIL (3 h) was 0.1 mg/dL. It also gave a TC (3 h) of 80 mg/dL, a TG (3 h) of 49 mg/dL and a TP (3 h) of 5.6 g/dL. For the same compound, the gamma-GTP (3 h) was 1.2 IU/L, the TERMINAL_BW (6 h) was 214.5 g and the APTT (6 h) was 18.6 s. For the same compound, the Bas (6 h) was 0%, the Eos (6 h) was 1% and the Fbg (6 h) was 219.4 mg/dL. For the same compound, the Hb (6 h) was 13.2 g/dL, the Ht (6 h) was 37.2% and the Lym (6 h) was 80.6%. The MCH (6 h) was 22 pg, the MCHC (6 h) was 35.5% and the MCV (6 h) was 61.9 fL. The Mono (6 h) was 2.4%, the Neu (6 h) was 15% and the PT (6 h) was 13 s. For the same compound, the Plat (6 h) was 107.7 x10_4/uL, the RBC (6 h) was 601.8 x10_4/ul and the Ret (6 h) was 7.8%. For the same compound, the WBC (6 h) was 87.4 x10_2/uL, the KIDNEY_L (6 h) was 1 g and the KIDNEY_R (6 h) was 1 g. It also gave a KIDNEY_TOTAL (6 h) of 2 g, an LIVER (6 h) of 8.8 g and an A/G (6 h) of 1.6. For the same compound, the ALP (6 h) was 898.6 IU/L, the ALT (6 h) was 36.8 IU/L and the AST (6 h) was 65.4 IU/L. For the same compound, the BUN (6 h) was 8.6 mg/dL, the CRE (6 h) was 0.3 mg/dL and the Ca (6 h) was 10.3 mg/dL. It also gave a Cl (6 h) of 102.8 meq/L, a DBIL (6 h) of 0.062 mg/dL and a GLC (6 h) of 183.4 mg/dL. The IP (6 h) was 8.9 mg/dL, the K (6 h) was 4.2 meq/L and the LDH (6 h) was 172 IU/L. For the same compound, the Na (6 h) was 139.6 meq/L, the PL (6 h) was 134.6 mg/dL and the RALB (6 h) was 3.3 g/dL. It also gave a TBIL (6 h) of 0.1 mg/dL, a TC (6 h) of 79.4 mg/dL and a TG (6 h) of 39.8 mg/dL. For the same compound, the TP (6 h) was 5.4 g/dL, the gamma-GTP (6 h) was 1 IU/L and the TERMINAL_BW (9 h) was 214.7 g. For the same compound, the APTT (9 h) was 18.8 s, the Bas (9 h) was 0% and the Eos (9 h) was 1%. The Fbg (9 h) was 228.8 mg/dL, the Hb (9 h) was 13.6 g/dL and the Ht (9 h) was 38.3%. The Lym (9 h) was 78.6%, the MCH (9 h) was 22.2 pg and the MCHC (9 h) was 35.6%. The MCV (9 h) was 62.6 fL, the Mono (9 h) was 2.2% and the Neu (9 h) was 17.2%. The PT (9 h) was 12.8 s, the Plat (9 h) was 106.8 x10_4/uL and the RBC (9 h) was 613 x10_4/ul. For the same compound, the Ret (9 h) was 7.1%, the WBC (9 h) was 75.3 x10_2/uL and the KIDNEY_L (9 h) was 1 g. It also gave a KIDNEY_R (9 h) of 1 g, a KIDNEY_TOTAL (9 h) of 2 g and an LIVER (9 h) of 8.7 g. The A/G (9 h) was 1.7, the ALP (9 h) was 891.2 IU/L and the ALT (9 h) was 32.6 IU/L. The AST (9 h) was 64.2 IU/L, the BUN (9 h) was 10.6 mg/dL and the CRE (9 h) was 0.3 mg/dL. For the same compound, the Ca (9 h) was 10.4 mg/dL, the Cl (9 h) was 102.8 meq/L and the DBIL (9 h) was 0.074 mg/dL. The GLC (9 h) was 202.6 mg/dL, the IP (9 h) was 8.9 mg/dL and the K (9 h) was 3.8 meq/L. For the same compound, the LDH (9 h) was 187.4 IU/L, the Na (9 h) was 141 meq/L and the PL (9 h) was 136.4 mg/dL. The RALB (9 h) was 3.5 g/dL, the TBIL (9 h) was 0.1 mg/dL and the TC (9 h) was 75.2 mg/dL. It also gave a TG (9 h) of 55.4 mg/dL, a TP (9 h) of 5.6 g/dL and a gamma-GTP (9 h) of 1 IU/L. For the same compound, the TERMINAL_BW (24 h) was 229.4 g, the APTT (24 h) was 18 s and the Bas (24 h) was 0%. It also gave an Eos (24 h) of 1%, a Fbg (24 h) of 214.8 mg/dL and a Hb (24 h) of 13.4 g/dL. For the same compound, the Ht (24 h) was 38.5%, the Lym (24 h) was 79.2% and the MCH (24 h) was 22.4 pg. It also gave an MCHC (24 h) of 34.8%, an MCV (24 h) of 64.2 fL and a Mono (24 h) of 2%. The Neu (24 h) was 16.4%, the PT (24 h) was 12 s and the Plat (24 h) was 116.5 x10_4/uL. For the same compound, the RBC (24 h) was 599.6 x10_4/ul, the Ret (24 h) was 6.7% and the WBC (24 h) was 80 x10_2/uL. It also gave a KIDNEY_L (24 h) of 1 g, a KIDNEY_R (24 h) of 1 g and a KIDNEY_TOTAL (24 h) of 2.1 g. It also gave an LIVER (24 h) of 11.1 g, an A/G (24 h) of 1.5 and an ALP (24 h) of 943.6 IU/L. It also gave an ALT (24 h) of 39 IU/L, an AST (24 h) of 66 IU/L and a BUN (24 h) of 13.6 mg/dL. It also gave a CRE (24 h) of 0.4 mg/dL, a Ca (24 h) of 10.9 mg/dL and a Cl (24 h) of 102.8 meq/L. For the same compound, the DBIL (24 h) was 0.1 mg/dL, the GLC (24 h) was 193.2 mg/dL and the IP (24 h) was 7.9 mg/dL. It also gave a K (24 h) of 4.1 meq/L, an LDH (24 h) of 223.6 IU/L and a Na (24 h) of 140.2 meq/L. The PL (24 h) was 147.8 mg/dL, the RALB (24 h) was 3.4 g/dL and the TBIL (24 h) was 0.2 mg/dL. The TC (24 h) was 74.6 mg/dL, the TG (24 h) was 120.4 mg/dL and the TP (24 h) was 5.7 g/dL. It also gave a gamma-GTP (24 h) of 1.4 IU/L.
